“And” between values parts separate entries of the source, which are not always exact repeats. Equal entries are not always repeated. Inconclusive results and toxic doses are left out. Rule as the data show it: active = T/C of 150% or more; inactive = T/C below 125%. Peptide text beside a SMILES is read from it.
System: L1210 leukemia ip in BDF1 mice, survival T/C
Test: NCI In Vivo Anticancer Drug Screen. Data for tumor model L1210 Leukemia (intraperitoneal) in B6D2F1 (BDF1) mice
Details: endpoint: mean survival time, higher = longer survival
In short: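 Transplantable tumor model; survival measured in treated vs vehicle control mice. Value = treated/control.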

[1] = dose: 100.0 mg/kg/injection, schedule: Q01DX001 (ip), vehicle: saline with Tween-80
[2] = dose: 200.0 mg/kg/injection, schedule: Q01DX001 (ip), vehicle: saline with Tween-80
[3] = dose: 100.0 mg/kg/injection, schedule: Q01DX009 (ip), vehicle: Klucel (hydroxypropylcellulose) (HPC)
[4] = dose: 200.0 mg/kg/injection, schedule: Q01DX009 (ip), vehicle: Klucel (hydroxypropylcellulose) (HPC)
[5] = dose: 400.0 mg/kg/injection, schedule: Q01DX009 (ip), vehicle: Klucel (hydroxypropylcellulose) (HPC)
[6] = dose: 100.0 mg/kg/injection, schedule: Q04DX003 (ip), vehicle: saline with Tween-80
[7] = dose: 200.0 mg/kg/injection, schedule: Q04DX003 (ip), vehicle: saline with Tween-80
[8] = dose: 100.0 mg/kg/injection, schedule: Q01DX001 (ip), vehicle: carboxymethylcellulose (CMC)
[9] = dose: 200.0 mg/kg/injection, schedule: Q01DX001 (ip), vehicle: carboxymethylcellulose (CMC)
[10] = dose: 400.0 mg/kg/injection, schedule: Q01DX001 (ip), vehicle: carboxymethylcellulose (CMC)
[11] = dose: 100.0 mg/kg/injection, schedule: Q04DX002 (ip), vehicle: saline
[12] = dose: 200.0 mg/kg/injection, schedule: Q04DX002 (ip), vehicle: saline
[13] = dose: 400.0 mg/kg/injection, schedule: Q04DX002 (ip), vehicle: saline
[14] = dose: 50.0 mg/kg/injection, schedule: Q01DX009 (ip), vehicle: Klucel (hydroxypropylcellulose) (HPC)
[15] = dose: 100.0 mg/kg/injection, schedule: Q04DX002 (ip), vehicle: Klucel (hydroxypropylcellulose) (HPC)
[16] = dose: 100.0 mg/kg/injection, schedule: Q04DX003 (ip), vehicle: Klucel (hydroxypropylcellulose) (HPC)
[17] = dose: 200.0 mg/kg/injection, schedule: Q04DX002 (ip), vehicle: Klucel (hydroxypropylcellulose) (HPC)
[18] = dose: 200.0 mg/kg/injection, schedule: Q04DX003 (ip), vehicle: Klucel (hydroxypropylcellulose) (HPC)
[19] = dose: 50.0 mg/kg/injection, schedule: Q01DX009 (ip), vehicle: saline
[20] = dose: 100.0 mg/kg/injection, schedule: Q01DX009 (ip), vehicle: saline
[21] = dose: 200.0 mg/kg/injection, schedule: Q01DX009 (ip), vehicle: saline
[22] = dose: 400.0 mg/kg/injection, schedule: Q01DX001 (ip), vehicle: saline with Tween-80

Measured: T/C

NC(CCC(=O)O)C(=O)NC(CO)C(=O)O (stereo not drawn) (H-Glu-Ser-OH; configuration not given here)
inactive: [1] 92 % of control | [2] 89 % of control

Cc1cc(C)c(S(=O)(=O)Nc2ccccc2F)c(C)c1
inactive: [3] 98 % of control | [4] 110 % of control | [5] 93 % of control

CC(=O)O[C@H]1CC[C@H]2[C@@H]3CC[C@H]4CC=C(C#N)C[C@]4(C)[C@H]3CC[C@]12C
inactive: dose: 50.0 mg/kg/injection, schedule: Q01DX001 (sc), vehicle: steriod suspending solution 107 % of control | dose: 100.0 mg/kg/injection, schedule: Q01DX001 (sc), vehicle: steriod suspending solution 104 % of control | dose: 200.0 mg/kg/injection, schedule: Q01DX001 (sc), vehicle: steriod suspending solution 102 % of control | dose: 400.0 mg/kg/injection, schedule: Q01DX001 (sc), vehicle: steriod suspending solution 101 % of control

COC(=O)c1ccccc1N=NNc1cccc(SC)c1
inactive: [6] 95 % of control | [7] 93 % of control

O=c1[nH]c2cc(Br)ccc2c2ccccc12
inactive: [8] 95 % of control | [9] 101 % of control | [10] 94 % of control

NC1CCSCC1
inactive: dose: 100.0 mg/kg/injection, schedule: Q01DX001 (ip), vehicle: saline 104 % of control | dose: 200.0 mg/kg/injection, schedule: Q01DX001 (ip), vehicle: saline 96 % of control | dose: 400.0 mg/kg/injection, schedule: Q01DX001 (ip), vehicle: saline 96 % of control

CC1CCCCN1Cc1ccccc1COC(=O)c1ccc([N+](=O)[O-])cc1Cl (configuration not stated)
inactive: dose: 100.0 mg/kg/injection, schedule: Q04DX002 (ip), vehicle: saline with Tween-80 94 % of control | dose: 200.0 mg/kg/injection, schedule: Q04DX002 (ip), vehicle: saline with Tween-80 97 % of control

Cc1ncc(CO)c(Cc2ccc(N(C)C)cc2)c1O
inactive: [11] 88 % of control | [12] 103 % of control | [13] 95 % of control

NC(N)=NC(N)=Nc1ccccc1Br
inactive: [14] 106 % of control | [3] 104 % of control | [15] 107 % of control | [16] 98 % of control | [17] 104 % of control | [18] 110 % of control

CCC(=O)C1CCCCN1 (configuration not stated)
inactive: dose: 25.0 mg/kg/injection, schedule: Q04DX002 (ip), vehicle: saline 94 % of control | dose: 50.0 mg/kg/injection, schedule: Q04DX002 (ip), vehicle: saline 94 % of control

COc1ccc(N2CCN(c3c(N)cnc4ccccc34)CC2)c(OC)c1
inactive: [8] 97 % of control | [9] 103 % of control | [10] 97 % of control

CCOC(=O)COC
inactive: [19] 100 % of control | [20] 96 % of control | [21] 89 % of control

CN(CCC#N)CCC#N
inactive: dose: 100.0 mg/kg/injection, schedule: Q04DX003 (ip), vehicle: saline 109 % of control | dose: 200.0 mg/kg/injection, schedule: Q04DX003 (ip), vehicle: saline 94 % of control | dose: 400.0 mg/kg/injection, schedule: Q04DX003 (ip), vehicle: saline 101 % of control

C=CCOC(=O)CCl
inactive: dose: 55.0 mg/kg/injection, schedule: Q01DX Z (ip), vehicle: methylcellulose (MC) 87 % of control | [1] 92 % of control | [2] 98 % of control

CCCCCOC(=O)CN(CC(=O)OCCCCC)c1ccccc1
inactive: [3] 88 % of control | [6] 101 % of control | [4] 99 % of control | [7] 98 % of control | [5] 91 % of control | dose: 400.0 mg/kg/injection, schedule: Q04DX003 (ip), vehicle: saline with Tween-80 95 % of control

OC(C1COC(CBr)O1)C(O)C1COC(CBr)O1 (configuration not stated)
inactive: [15] 117 % of control and 113 % of control | [17] 98 % of control and 103 % of control | dose: 400.0 mg/kg/injection, schedule: Q04DX002 (ip), vehicle: Klucel (hydroxypropylcellulose) (HPC) 95 % of control

C[C@@H]1C[C@](O)([C@@H](C)Cl)C(=O)O[C@@H]2CCN3CC=C(COC(=O)[C@]1(C)O)[C@H]23
inactive: dose: 3.0 mg/kg/injection, schedule: Q01DX Z (ip), vehicle: saline 107 % of control | dose: 6.0 mg/kg/injection, schedule: Q01DX Z (ip), vehicle: saline 103 % of control | dose: 12.0 mg/kg/injection, schedule: Q01DX Z (ip), vehicle: saline 100 % of control | dose: 24.0 mg/kg/injection, schedule: Q01DX Z (ip), vehicle: saline 103 % of control

COC(=O)c1nnc(C(=O)OC)nn1
inactive: [11] 96 % of control | [12] 115 % of control | [13] 96 % of control

O=C(O)c1ccc(S(=O)(=O)O)cc1
inactive: [20] 100 % of control | [21] 97 % of control | dose: 400.0 mg/kg/injection, schedule: Q01DX009 (ip), vehicle: saline 101 % of control

NNC(=O)c1n[nH]c(C2OC(CO)C(O)C2O)c1N (configuration not stated)
inactive: dose: 100.0 mg/kg/injection, schedule: Q01DX005 (ip), vehicle: saline 100 % of control | dose: 200.0 mg/kg/injection, schedule: Q01DX005 (ip), vehicle: saline 94 % of control

N/C(Cc1ccc(N)cc1)=N\O
inactive: dose: 25.0 mg/kg/injection, schedule: Q01DX009 (ip), vehicle: saline with Tween-80 97 % of control | dose: 50.0 mg/kg/injection, schedule: Q01DX009 (ip), vehicle: saline with Tween-80 101 % of control | dose: 100.0 mg/kg/injection, schedule: Q01DX009 (ip), vehicle: saline with Tween-80 95 % of control

CC(C)(C)C1=C[P+](c2ccccc2)(c2ccccc2)C(C(C)(C)C)=C[P+]1(c1ccccc1)c1ccccc1
inactive: dose: 12.5 mg/kg/injection, schedule: Q01DX009 (ip), vehicle: saline 94 % of control | dose: 12.5 mg/kg/injection, schedule: Q04DX003 (ip), vehicle: saline 96 % of control | dose: 25.0 mg/kg/injection, schedule: Q01DX009 (ip), vehicle: saline 104 % of control | dose: 25.0 mg/kg/injection, schedule: Q04DX003 (ip), vehicle: saline 122 % of control | [19] 100 % of control | dose: 50.0 mg/kg/injection, schedule: Q04DX003 (ip), vehicle: saline 108 % of control

O=[N+]([O-])c1cccc(OCCCOc2ccc(S(=O)(=O)F)cc2)c1
inactive: [1] 96 % of control | [2] 98 % of control | [22] 90 % of control

C1=C(c2ccccc2)CC2CCCC1N2Cc1ccccc1 (configuration not stated)
inactive: dose: 12.5 mg/kg/injection, schedule: Q04DX003 (ip), vehicle: Klucel (hydroxypropylcellulose) (HPC) 102 % of control | dose: 25.0 mg/kg/injection, schedule: Q04DX003 (ip), vehicle: Klucel (hydroxypropylcellulose) (HPC) 102 % of control | dose: 50.0 mg/kg/injection, schedule: Q04DX003 (ip), vehicle: Klucel (hydroxypropylcellulose) (HPC) 94 % of control

CCOC(=O)/C(C#N)=C\c1ccccc1Cl
inactive: [14] 98 % of control | [3] 95 % of control | [16] 91 % of control | [4] 100 % of control | [18] 99 % of control

O=c1[nH]nnc2nc(CCCc3ccccc3)[nH]c12
inactive: [1] 98 % of control | [2] 111 % of control | [22] 104 % of control

CN(CCOS(=O)(=O)O)CCOS(=O)(=O)O
inactive: dose: 37.5 mg/kg/injection, schedule: Q01DX009 (ip), vehicle: saline 98 % of control | dose: 75.0 mg/kg/injection, schedule: Q01DX009 (ip), vehicle: saline 98 % of control | dose: 75.0 mg/kg/injection, schedule: Q04DX003 (ip), vehicle: saline 102 % of control | dose: 150.0 mg/kg/injection, schedule: Q01DX009 (ip), vehicle: saline 95 % of control | dose: 150.0 mg/kg/injection, schedule: Q04DX003 (ip), vehicle: saline 100 % of control | dose: 300.0 mg/kg/injection, schedule: Q04DX003 (ip), vehicle: saline 96 % of control

— PubChem BioAssay AID248 (DTP/NCI, 2004)
